Values of other authors as cited in patent US20150297556A1 (priority 2014, published 2015).

(1S,5S)-2,6,6-Trimethylbicyclo[3.1.1]hept-2-ene ((−)-α-Pinene)
human pulmonary uptake: 60%
